# Assay results from article PMC4891657, “Orexin 2 Receptor Antagonism is Sufficient to Promote NREM and REM Sleep from Mouse to Man” (Scientific Reports, 2016).
# Read-outs that look alike come from different tables or passages of the source.
# Legend:
# OX2R [1] = molecular target: T1, OX2R (Homo sapiens, UniProt O43614); assay: Inhibition of orexin-peptide-A-induced calcium mobilization in CHO cells, human OX2R; assay type: cell-based; design: expressed in transfected cells; host or cells: CHO-K1; conditions: for fold OX2R selectivity (Kb): OX1R Kb / OX2R Kb
# T1 sequence (O43614 1-444): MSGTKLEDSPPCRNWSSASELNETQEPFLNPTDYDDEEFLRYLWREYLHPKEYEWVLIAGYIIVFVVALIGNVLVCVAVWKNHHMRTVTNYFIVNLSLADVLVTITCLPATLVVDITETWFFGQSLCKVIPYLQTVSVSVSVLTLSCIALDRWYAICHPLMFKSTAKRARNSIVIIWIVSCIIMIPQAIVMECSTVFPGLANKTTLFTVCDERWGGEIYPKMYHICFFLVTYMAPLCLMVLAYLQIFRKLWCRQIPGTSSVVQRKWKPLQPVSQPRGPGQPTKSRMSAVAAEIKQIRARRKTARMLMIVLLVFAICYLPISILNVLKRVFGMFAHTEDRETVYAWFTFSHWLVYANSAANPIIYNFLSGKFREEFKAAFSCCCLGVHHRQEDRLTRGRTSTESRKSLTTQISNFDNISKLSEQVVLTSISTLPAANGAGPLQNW
# Description: (§1) MK-1064 was evaluated for its ability to inhibit orexin-peptide-A-induced calcium mobilization in CHO cell lines separately expressing OX1R and OX2R from mice, rats, rabbits, dogs, rhesus monkeys and humans.
# (§2) Binding and functional blockade of OX1R and OX2R with MK-1064 relative to other 2-SORAs and the DORA, MK-6096, were assessed using membranes from Chinese hamster ovary (CHO)-K1 cells (American Type Tissue Collection, Manassas, VA) transfected to express human, mouse, rat, rabbit, dog, or rhesus monkey OX1R or OX2R receptors, as described previously. The kinetics of binding to human OX2R was assessed by radioligand displacement on CHO-K1 cells expressing the receptor. […] The ON rate analysis was performed by presoaking GF/B filters in 0.3% polyethyleneimine (Sigma) using a Skatron 12-well cell harvester and cold buffer at the indicated time points after addition. For OFF rate determination, binding reactions were allowed to proceed to equilibrium and terminated with 1000x [Kd] of unlabeled antagonist and filtered as above at pre-determined time points. Ultima Gold^TM (PerkinElmer 6013327) scintillation cocktail was added to each filter disc and counted on a PerkinElmer TriCarb 2910 scintillation counter. Data were analyzed using GraphPad® Prism v 6.04 (San Diego, CA, USA). The KON rate was determined according to the equation, KON = (KOBS − KOFF)/[ligand].
# OX2R [2] = molecular target: T2, OX2R (Oryctolagus cuniculus, UniProt G1STQ8); assay: Radio-ligand displacement binding, CHO-K1 membranes, rabbit OX2R; conditions: for fold OX2R selectivity (Ki): OX1R Ki / OX2R Ki; for Ki: read-out: OX2R affinity (Ki)
# T2 sequence (G1STQ8 1-444): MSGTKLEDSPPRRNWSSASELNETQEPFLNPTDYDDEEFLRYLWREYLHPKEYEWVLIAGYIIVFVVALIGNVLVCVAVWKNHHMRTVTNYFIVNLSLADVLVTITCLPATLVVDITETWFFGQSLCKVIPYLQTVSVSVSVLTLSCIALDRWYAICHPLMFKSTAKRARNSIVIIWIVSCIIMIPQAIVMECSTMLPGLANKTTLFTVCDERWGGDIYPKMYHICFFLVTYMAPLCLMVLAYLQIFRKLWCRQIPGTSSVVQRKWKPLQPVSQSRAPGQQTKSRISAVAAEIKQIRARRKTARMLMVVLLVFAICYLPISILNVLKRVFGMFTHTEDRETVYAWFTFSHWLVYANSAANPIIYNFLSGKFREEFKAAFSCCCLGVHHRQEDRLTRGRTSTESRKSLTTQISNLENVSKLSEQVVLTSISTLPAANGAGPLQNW
# Description: as §1, §2
# OX1R = molecular target: T3, OX1R (Canis lupus familiaris, UniProt A0A8I3RSX8); assay: Radio-ligand displacement binding, CHO-K1 membranes, dog OX1R; conditions: read-out: OX1R affinity (Ki)
# T3 sequence (A0A8I3RSX8 1-427): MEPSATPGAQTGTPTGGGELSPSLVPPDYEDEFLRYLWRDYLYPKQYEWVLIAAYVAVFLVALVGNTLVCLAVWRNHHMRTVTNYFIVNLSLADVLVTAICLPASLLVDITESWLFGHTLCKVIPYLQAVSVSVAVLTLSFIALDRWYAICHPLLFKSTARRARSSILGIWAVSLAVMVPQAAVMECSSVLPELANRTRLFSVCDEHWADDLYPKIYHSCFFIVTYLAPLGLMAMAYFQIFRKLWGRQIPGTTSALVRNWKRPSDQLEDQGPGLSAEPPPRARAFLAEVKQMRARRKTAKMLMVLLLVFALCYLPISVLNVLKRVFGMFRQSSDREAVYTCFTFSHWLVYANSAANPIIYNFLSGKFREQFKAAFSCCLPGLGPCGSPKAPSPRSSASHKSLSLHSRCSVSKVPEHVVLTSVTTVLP
# Description: as §1, §2
# somnolence / alertness = assay: Karolinska Sleepiness Scale and Bond and Lader VAS in healthy subjects; assay type: in vivo, human; conditions: all single doses greater than 5 mg
# Description: In the ascending single-dose study, doses of MK-1064 ranging from 5 to 250 mg corresponded with dose-dependent changes in measured plasma levels (Fig. 6a). […] The greatest effects were observed between 1 and 4 hours, and effects greatly diminished 8 hours following treatment, consistent with the time course of plasma concentrations of MK-1064.
# Figure 6 MK-1064 dose-dependently promotes somnolence and attenuates arousal in healthy human subjects. (a) Plasma concentration of MK-1064 over time following administration of single doses of MK-1064 5–250 mg. (b) Somnolence, as measured by the KSS, and (c) alertness, as measured by the Bond and Lader VAS, over time following administration of single doses of MK-1064 (5–250 mg) or placebo in healthy human subjects (N = 20).
# During each treatment period, blood was collected for PK analysis pre-dose and at time points up to 72 hours post-dose. MK-1064 plasma concentrations were determined by reverse phase high-performance liquid chromatography and detected with tandem mass spectrometry. The lower limit of quantitation was 1 ng/mL and the linear calibration range was 1–1000 ng/mL. PK parameters were calculated with WinNonLin 5.2.1. Values below the assay limit of quantification were indicated with a zero value. […]
# sleep/wake stages = assay: Polysomnography in telemetered dogs; assay type: in vivo, dog
# Description: The mean time spent in sleep stages was determined in radio-telemetry–implanted mice, rats, and dogs, as described previously[1][14][40][42]. Continuous PSG recordings were performed following oral MK-1064 or vehicle (20% vitamin E d-alpha tocopheryl polyethylene glycol 1000 succinate [TPGS]) administration. In rodents, electrocorticogram (ECoG) and electromyogram (EMG) and locomotor activity measured via radio-telemetry were scored in 10 second epochs to define light sleep (LS; no movement, moderate EMG tone, theta with <50% delta ECoG [0.5–4 Hz]), slow wave sleep (SWS; no gross movement, reduced EMG, >50% delta ECoG) and rapid eye movement sleep (REM; no movement, little to no EMG activity, primarily theta ECoG [4–7 Hz] activity)[42]. Scored data were then grouped and compiled according to condition (vehicle or compound treatment) averaged over the indicated times (30 minutes or 2 hours) and analyzed statistically as previously described[1][14][40][42] […]
# Mean times in active wake, NREM I, NREM II, and REM sleep were monitored continuously. Vehicle and compound treatment conditions were consolidated into 24-hour periods for each animal, and the mean time spent in each sleep stage for the 2 hours following treatment was determined and significance determined by t-test.
# Dog plasma free fraction = assay type: in vitro ADME
# [3] = Plasma exposure in dogs after oral dosing; assay type: in vivo, dog; conditions: for Cmax / Tmax / AUC(0-t): beagle, dog, plasma
Structure (SMILES),Kb (OX2R [1]) [nM],fold OX2R selectivity (Kb) (OX2R [1]),fold OX2R selectivity (Ki) (OX2R [2]),Ki (OX2R [2]) [nM],Ki (OX1R) [nM],subject-reported somnolence (KSS) and drowsiness (alertness VAS) (somnolence / alertness),"active wake (with increases in NREM I, NREM II and REM sleep) (sleep/wake stages; 1 mg/kg oral, 1 hour following administration vs vehicle)","REM sleep in the hour following administration (sleep/wake stages; 20 mg/kg oral, vs vehicle, increased at several later time points)",fraction unbound (Dog plasma free fraction),expected unbound drug levels at 1 hour (~Tmax) ([3]; 20 mg/kg oral),Cmax ([3]; 1 mg/kg oral) [µM],Tmax ([3]; 1 mg/kg oral) [min],"AUC(0-t) ([3]; 1 mg/kg oral, read-out: AUC0–24) [µM·h]",Cmax ([3]; 20 mg/kg oral) [µM],Tmax ([3]; 20 mg/kg oral) [min],"AUC(0-t) ([3]; 20 mg/kg oral, read-out: AUC0-24) [µM·h]"
Cc1ccc(-c2ncccn2)c(C(=O)N2C[C@H](COc3ccc(F)cn3)CC[C@H]2C)c1 [MK-6096],11,[1.0] fold,[9.3] fold,0.28,2.7,–,–,–,–,–,–,–,–,–,–,–
COc1ccc(CNC(=O)c2cc(-c3cncc(C)c3)ncc2-c2ccccc2)nc1OC [2-SORA-7],12,[363] fold,[9986] fold,0.44,1800,–,–,–,–,–,–,–,–,–,–,–
"COc1ccc(CNC(=O)c2cc(-c3cncc(Cl)c3)cnc2-c2ccccn2)nc1OC [MK-1064, 5″-chloro-N-[(5,6-dimethoxypyridin-2-yl)methyl]-2,2′:5′, 3″-terpyridine-3′-carbo xamide]",9,[208] fold,[4780] fold,0.51,1300,Dose-dependent increases,Significant active wake reductions,not significantly increased,0.286,approximately 4.4 μM,1,18,3.4,15.3,48,56.5
COc1ccc(CNC(=O)c2cc(-c3cncc(C)c3)ncc2-c2nccs2)nc1OC [MK-3697],14,–,–,1.01,3100,–,–,–,–,–,–,–,–,–,–,–
COc1ccc(CNC(=O)c2cc(-c3cc(Cl)cc(Cl)c3)cnc2-c2cccnc2)cc1OC [2-SORA-18],18,[9] fold,[2410] fold,0.1,86,–,–,–,–,–,–,–,–,–,–,–
